Source: ChEMBL document CHEMBL5506027, “Discovery of a Novel and Potent Cyclin-Dependent Kinase 8/19 (CDK8/19) Inhibitor for the Treatment of Cancer” (J Med Chem, 2024)

Key:
[1] = molecular target: Cyclin-dependent kinase 8 (Homo sapiens, UniProt P49336); experiment: Inhibition of CDK8 (unknown origin) by HTRF assay
[2] = molecular target: Serine/threonine-protein kinase pim-2 (Homo sapiens, UniProt Q9P1W9); experiment: Inhibition of PIM2 (unknown origin) by ADP-Glo assay
[3] = Half-life in mouse at 1 mg/kg, iv measured upto 24 hrs by LC-MS/MS anlaysis; format: ADME, organism-based; settings: in vivo
[4] = molecular target: T1, Cyclin-dependent kinase 5/CDK5 activator 1 (Homo sapiens, UniProt Q00535); experiment: Inhibition of CDK5/p35NCK (unknown origin) by ADP-Glo chemiluminescence assay; format: protein-complex assay
[5] = molecular target: Casein kinase I isoform alpha (Homo sapiens, UniProt P48729); experiment: Inhibition of CSNK1A1 (unknown origin) by ADP-Glo assay
[6] = molecular target: T2, Cytochrome P450 1A2 (Homo sapiens, UniProt P05177); experiment: Inhibition of CYP1A2 (unknown origin) in absence of NADPH; format: ADME
T2 sequence (P05177 whole entry): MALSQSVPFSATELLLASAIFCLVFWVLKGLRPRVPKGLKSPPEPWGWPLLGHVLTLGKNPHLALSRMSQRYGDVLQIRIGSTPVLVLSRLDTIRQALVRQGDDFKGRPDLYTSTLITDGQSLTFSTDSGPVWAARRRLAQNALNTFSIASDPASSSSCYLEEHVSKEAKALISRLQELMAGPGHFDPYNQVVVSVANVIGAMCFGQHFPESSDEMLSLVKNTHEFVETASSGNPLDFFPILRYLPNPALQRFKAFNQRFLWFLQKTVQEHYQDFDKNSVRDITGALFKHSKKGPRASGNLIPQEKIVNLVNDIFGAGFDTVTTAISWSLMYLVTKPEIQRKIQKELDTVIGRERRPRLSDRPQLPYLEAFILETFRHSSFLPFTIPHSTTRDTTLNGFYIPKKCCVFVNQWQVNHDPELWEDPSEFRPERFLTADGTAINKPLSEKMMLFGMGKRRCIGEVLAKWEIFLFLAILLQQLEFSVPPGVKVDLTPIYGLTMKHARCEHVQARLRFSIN

[7] = molecular target: Mitogen-activated protein kinase 15 (Homo sapiens, UniProt Q8TD08); experiment: Inhibition of ERK8 (unknown origin) by ADP-Glo assay
[8] = Volume of distribution at steady state in dog at 1 mg/kg, iv measured upto 24 hrs by LC-MS/MS anlaysis; format: ADME, organism-based, Canis lupus familiaris; settings: in vivo, read-out: Vdss
[9] = Volume of distribution at steady state in rat at 1 mg/kg, iv measured upto 24 hrs by LC-MS/MS anlaysis; format: ADME, organism-based; settings: in vivo, read-out: Vdss
[10] = molecular target: Dual specificity protein kinase CLK1 (Homo sapiens, UniProt P49759); experiment: Inhibition of CLK1 (unknown origin) by ADP-Glo assay
[11] = Half-life in dog at 1 mg/kg, iv measured upto 24 hrs by LC-MS/MS anlaysis; format: ADME, organism-based, Canis lupus familiaris; settings: in vivo
[12] = molecular target: Dual specificity tyrosine-phosphorylation-regulated kinase 1A (Homo sapiens, UniProt Q13627); experiment: Inhibition of DYRK1A (unknown origin) by ADP-Glo assay
[13] = system: MV4-11; experiment: Antiproliferative activity against human MV4-11 cells incubated for 5 days by CellTiter-Glo luminescent cell viability assay; format: functional, cell-based; settings: MV4-11, 120 h
[14] = molecular target: Voltage-gated inwardly rectifying potassium channel KCNH2 (Homo sapiens, UniProt Q12809); experiment: Inhibition of human ERG; format: toxicity
[15] = Dose normalized AUC in dog at 3 mg/kg, po measured upto 24 hrs by LC-MS/MS analysis; format: ADME, organism-based, Canis lupus familiaris; settings: in vivo
[16] = molecular target: Casein kinase II subunit alpha' (Homo sapiens, UniProt P19784); experiment: Inhibition of CSNK2A2 (unknown origin) by ADP-Glo assay
[17] = molecular target: Dual specificity protein kinase CLK2 (Homo sapiens, UniProt P49760); experiment: Inhibition of CLK2 (unknown origin) by ADP-Glo assay
[18] = molecular target: T2, Cytochrome P450 1A2; experiment: Inhibition of CYP1A2 (unknown origin) preincubated for 30 mins in presence of NADPH; format: ADME
[19] = molecular target: Serine/threonine-protein kinase haspin (Homo sapiens, UniProt Q8TF76); experiment: Inhibition of HASPIN (unknown origin) by ADP-Glo assay
[20] = molecular target: Serine/threonine-protein kinase TAO1 (Homo sapiens, UniProt Q7L7X3); experiment: Inhibition of TAOK1 (unknown origin) by ADP-Glo assay
[21] = molecular target: CDK7/Cyclin H/MNAT1 (Homo sapiens, UniProt P50613); experiment: Inhibition of CDK7/cyclinH/MAT1 (unknown origin) by ADP-Glo chemiluminescence assay; format: protein-complex assay
[22] = Clearance in rat at 1 mg/kg, iv measured upto 24 hrs by LC-MS/MS anlaysis; format: ADME, organism-based; settings: in vivo
[23] = Inhibition of CDK1/cyclinA2 (unknown origin) by ADP-Glo chemiluminescence assay; parameters: species or system Homo sapiens
[24] = molecular target: Rho-associated protein kinase 1 (Homo sapiens, UniProt Q13464); experiment: Inhibition of ROCK1 (unknown origin) by ADP-Glo assay
[25] = molecular target: Cyclin-dependent kinase 2/cyclin E1 (Homo sapiens, UniProt P24941); experiment: Inhibition of CDK2/cyclinE1 (unknown origin) by ADP-Glo chemiluminescence assay; format: protein-complex assay
[26] = Volume of distribution at steady state in mouse at 1 mg/kg, iv measured upto 24 hrs by LC-MS/MS anlaysis; format: ADME, organism-based; settings: in vivo, read-out: Vdss
[27] = Clearance in mouse at 1 mg/kg, iv measured upto 24 hrs by LC-MS/MS anlaysis; format: ADME, organism-based; settings: in vivo
[28] = molecular target: Homeodomain-interacting protein kinase 3 (Homo sapiens, UniProt Q9H422); experiment: Inhibition of HIPK3 (unknown origin) by ADP-Glo assay
[29] = molecular target: CDK8/Cyclin C (Homo sapiens, UniProt P49336); experiment: Inhibition of CDK8/CyclinC (unknown origin) by ADP-Glo chemiluminescence assay; format: protein-complex assay
[30] = Clearance in dog at 1 mg/kg, iv measured upto 24 hrs by LC-MS/MS anlaysis; format: ADME, organism-based, Canis lupus familiaris; settings: in vivo
[31] = molecular target: CDK2/Cyclin A2 (Homo sapiens, UniProt P24941); experiment: Inhibition of CDK2/cyclinA2 (unknown origin) by ADP-Glo chemiluminescence assay; format: protein-complex assay
[32] = molecular target: Dual specificity protein kinase CLK4 (Homo sapiens, UniProt Q9HAZ1); experiment: Inhibition of CLK4 (unknown origin) by ADP-Glo assay
[33] = molecular target: T1, Cyclin-dependent kinase 5/CDK5 activator 1; experiment: Inhibition of CDK5/p25NCK (unknown origin) by ADP-Glo chemiluminescence assay; format: protein-complex assay
[34] = molecular target: T3, Cyclin-dependent kinase 19 (Homo sapiens, UniProt Q9BWU1); experiment: Inhibition of CDK19 (unknown origin) by ADP-Glo assay
[35] = Half-life in rat at 1 mg/kg, iv measured upto 24 hrs by LC-MS/MS anlaysis; format: ADME, organism-based; settings: in vivo
[36] = molecular target: T3, Cyclin-dependent kinase 19; experiment: Inhibition of CDK19 (unknown origin) by HTRF assay
[37] = AUC(0 to 24 hrs) in rat at 10 mg/kg, po measured upto 24 hrs by LC-MS/MS analysis; format: ADME, organism-based; settings: in vivo
[38] = Tmax in dog at 5 mg/kg, po measured upto 24 hrs by LC-MS/MS analysis; format: ADME, organism-based, Canis lupus familiaris; settings: in vivo

T1 sequence (Q00535 whole entry, canonical isoform): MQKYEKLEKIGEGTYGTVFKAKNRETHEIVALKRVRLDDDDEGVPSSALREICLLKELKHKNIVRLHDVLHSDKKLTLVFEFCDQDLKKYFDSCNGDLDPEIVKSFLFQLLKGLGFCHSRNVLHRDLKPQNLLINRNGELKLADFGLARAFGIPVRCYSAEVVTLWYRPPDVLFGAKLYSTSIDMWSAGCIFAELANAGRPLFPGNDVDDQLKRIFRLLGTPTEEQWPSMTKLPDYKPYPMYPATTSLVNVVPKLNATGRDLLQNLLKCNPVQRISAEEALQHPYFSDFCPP
T1 sequence (Q15078 whole entry, further chain, canonical isoform): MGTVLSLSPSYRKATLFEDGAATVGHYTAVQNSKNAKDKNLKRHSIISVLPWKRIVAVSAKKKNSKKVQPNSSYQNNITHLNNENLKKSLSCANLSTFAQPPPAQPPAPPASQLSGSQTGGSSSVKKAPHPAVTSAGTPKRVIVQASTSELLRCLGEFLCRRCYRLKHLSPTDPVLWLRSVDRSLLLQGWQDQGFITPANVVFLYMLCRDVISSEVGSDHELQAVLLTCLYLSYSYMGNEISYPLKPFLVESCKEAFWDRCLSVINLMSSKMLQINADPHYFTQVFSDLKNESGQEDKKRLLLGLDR
T3 sequence (Q9BWU1 whole entry): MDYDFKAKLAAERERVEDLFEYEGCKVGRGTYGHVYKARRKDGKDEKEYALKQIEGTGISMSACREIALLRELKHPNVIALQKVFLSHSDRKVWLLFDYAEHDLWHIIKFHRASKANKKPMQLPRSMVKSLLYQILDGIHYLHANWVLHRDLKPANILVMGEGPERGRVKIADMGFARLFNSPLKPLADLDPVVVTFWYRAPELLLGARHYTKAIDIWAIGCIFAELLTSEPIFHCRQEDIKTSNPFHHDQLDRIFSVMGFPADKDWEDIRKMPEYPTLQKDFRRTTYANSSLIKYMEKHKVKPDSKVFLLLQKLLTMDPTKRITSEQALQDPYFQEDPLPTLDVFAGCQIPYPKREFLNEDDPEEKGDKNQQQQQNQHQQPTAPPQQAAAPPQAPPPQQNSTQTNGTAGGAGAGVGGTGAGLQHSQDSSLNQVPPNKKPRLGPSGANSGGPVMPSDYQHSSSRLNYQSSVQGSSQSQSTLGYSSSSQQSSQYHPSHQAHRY
Mitogen-activated protein kinase 15, sequence (Q8TD08 whole entry): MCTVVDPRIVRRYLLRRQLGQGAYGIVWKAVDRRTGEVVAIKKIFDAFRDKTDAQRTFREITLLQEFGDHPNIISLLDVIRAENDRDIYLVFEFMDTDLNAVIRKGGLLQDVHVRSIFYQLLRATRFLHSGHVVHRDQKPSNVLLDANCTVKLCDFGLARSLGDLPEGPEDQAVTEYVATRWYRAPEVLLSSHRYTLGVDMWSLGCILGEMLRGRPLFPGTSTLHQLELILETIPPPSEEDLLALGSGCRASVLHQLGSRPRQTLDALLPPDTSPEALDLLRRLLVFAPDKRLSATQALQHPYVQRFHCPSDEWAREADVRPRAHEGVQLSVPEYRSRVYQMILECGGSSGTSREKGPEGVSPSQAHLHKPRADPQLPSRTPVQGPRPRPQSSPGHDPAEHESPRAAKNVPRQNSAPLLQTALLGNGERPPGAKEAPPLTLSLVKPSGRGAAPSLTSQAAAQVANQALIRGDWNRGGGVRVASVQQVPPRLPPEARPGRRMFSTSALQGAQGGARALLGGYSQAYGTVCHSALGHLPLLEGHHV
CDK7/Cyclin H/MNAT1, sequence (P51946 whole entry): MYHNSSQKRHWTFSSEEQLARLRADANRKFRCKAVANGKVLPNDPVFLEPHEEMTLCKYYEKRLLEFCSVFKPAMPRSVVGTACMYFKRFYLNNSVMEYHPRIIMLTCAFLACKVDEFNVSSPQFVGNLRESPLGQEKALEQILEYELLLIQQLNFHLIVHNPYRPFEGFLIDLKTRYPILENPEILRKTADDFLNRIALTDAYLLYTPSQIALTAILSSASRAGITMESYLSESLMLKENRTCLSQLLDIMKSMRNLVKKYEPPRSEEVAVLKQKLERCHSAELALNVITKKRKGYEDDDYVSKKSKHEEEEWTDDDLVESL
CDK7/Cyclin H/MNAT1, sequence (P50613 whole entry): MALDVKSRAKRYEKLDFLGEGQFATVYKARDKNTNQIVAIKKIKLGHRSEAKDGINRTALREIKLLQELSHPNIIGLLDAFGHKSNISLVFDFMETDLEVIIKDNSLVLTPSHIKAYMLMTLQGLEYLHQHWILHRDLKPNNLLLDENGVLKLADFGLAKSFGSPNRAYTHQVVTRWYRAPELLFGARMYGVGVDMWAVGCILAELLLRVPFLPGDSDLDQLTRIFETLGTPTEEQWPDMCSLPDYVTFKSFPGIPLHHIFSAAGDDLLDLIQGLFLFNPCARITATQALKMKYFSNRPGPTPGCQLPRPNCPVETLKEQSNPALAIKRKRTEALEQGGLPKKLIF
CDK7/Cyclin H/MNAT1, sequence (P51948 whole entry, further chain): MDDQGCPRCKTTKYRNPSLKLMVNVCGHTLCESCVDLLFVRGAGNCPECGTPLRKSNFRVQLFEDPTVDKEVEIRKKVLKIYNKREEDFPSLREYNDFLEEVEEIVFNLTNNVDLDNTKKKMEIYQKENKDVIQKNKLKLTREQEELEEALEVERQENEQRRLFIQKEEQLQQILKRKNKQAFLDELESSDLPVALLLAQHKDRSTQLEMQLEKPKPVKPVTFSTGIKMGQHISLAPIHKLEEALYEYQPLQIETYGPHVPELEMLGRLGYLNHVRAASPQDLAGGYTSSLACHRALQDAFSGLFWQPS
Serine/threonine-protein kinase haspin, sequence (Q8TF76 whole entry): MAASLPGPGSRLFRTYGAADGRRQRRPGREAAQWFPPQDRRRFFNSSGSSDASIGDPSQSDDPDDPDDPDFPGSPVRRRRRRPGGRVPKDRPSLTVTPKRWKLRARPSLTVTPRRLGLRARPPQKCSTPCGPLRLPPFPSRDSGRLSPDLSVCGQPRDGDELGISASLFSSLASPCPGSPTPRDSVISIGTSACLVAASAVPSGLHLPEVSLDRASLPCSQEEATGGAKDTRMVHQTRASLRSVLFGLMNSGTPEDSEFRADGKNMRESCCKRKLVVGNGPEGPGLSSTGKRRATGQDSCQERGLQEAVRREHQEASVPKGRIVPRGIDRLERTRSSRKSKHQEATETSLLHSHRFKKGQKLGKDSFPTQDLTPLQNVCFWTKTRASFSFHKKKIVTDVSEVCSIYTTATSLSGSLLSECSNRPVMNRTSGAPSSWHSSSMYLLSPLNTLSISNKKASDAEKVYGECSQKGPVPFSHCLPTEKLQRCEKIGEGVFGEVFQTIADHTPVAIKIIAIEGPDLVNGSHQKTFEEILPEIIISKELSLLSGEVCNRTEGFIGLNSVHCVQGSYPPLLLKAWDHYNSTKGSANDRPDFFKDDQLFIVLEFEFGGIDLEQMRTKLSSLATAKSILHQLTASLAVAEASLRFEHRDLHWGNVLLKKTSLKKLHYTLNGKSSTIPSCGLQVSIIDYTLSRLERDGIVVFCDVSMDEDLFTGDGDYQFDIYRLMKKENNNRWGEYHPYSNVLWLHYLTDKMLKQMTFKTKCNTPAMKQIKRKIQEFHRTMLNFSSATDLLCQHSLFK
Cyclin-dependent kinase 8, sequence (P49336 whole entry): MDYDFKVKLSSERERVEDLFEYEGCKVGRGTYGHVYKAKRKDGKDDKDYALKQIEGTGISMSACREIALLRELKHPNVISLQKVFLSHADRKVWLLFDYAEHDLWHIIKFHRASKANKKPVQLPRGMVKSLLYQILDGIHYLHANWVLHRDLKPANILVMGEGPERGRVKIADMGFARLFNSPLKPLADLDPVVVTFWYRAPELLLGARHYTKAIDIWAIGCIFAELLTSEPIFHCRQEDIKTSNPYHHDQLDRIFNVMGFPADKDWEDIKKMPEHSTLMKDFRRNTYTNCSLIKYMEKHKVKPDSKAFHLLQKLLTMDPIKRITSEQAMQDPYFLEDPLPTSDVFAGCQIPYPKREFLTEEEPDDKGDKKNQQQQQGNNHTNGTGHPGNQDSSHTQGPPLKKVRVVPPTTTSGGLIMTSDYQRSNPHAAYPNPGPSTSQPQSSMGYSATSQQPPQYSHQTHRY
CDK8/Cyclin C, sequence (P49336 whole entry): as above
CDK8/Cyclin C, sequence (P24863 whole entry, further chain): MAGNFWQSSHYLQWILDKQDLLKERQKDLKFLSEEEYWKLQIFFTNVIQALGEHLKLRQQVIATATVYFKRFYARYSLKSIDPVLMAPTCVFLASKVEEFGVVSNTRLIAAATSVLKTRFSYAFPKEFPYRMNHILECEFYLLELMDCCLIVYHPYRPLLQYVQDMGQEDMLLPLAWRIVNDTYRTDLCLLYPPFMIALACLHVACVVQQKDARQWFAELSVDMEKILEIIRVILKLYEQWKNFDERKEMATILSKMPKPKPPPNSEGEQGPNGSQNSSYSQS
Casein kinase I isoform alpha, sequence (P48729 whole entry, canonical isoform): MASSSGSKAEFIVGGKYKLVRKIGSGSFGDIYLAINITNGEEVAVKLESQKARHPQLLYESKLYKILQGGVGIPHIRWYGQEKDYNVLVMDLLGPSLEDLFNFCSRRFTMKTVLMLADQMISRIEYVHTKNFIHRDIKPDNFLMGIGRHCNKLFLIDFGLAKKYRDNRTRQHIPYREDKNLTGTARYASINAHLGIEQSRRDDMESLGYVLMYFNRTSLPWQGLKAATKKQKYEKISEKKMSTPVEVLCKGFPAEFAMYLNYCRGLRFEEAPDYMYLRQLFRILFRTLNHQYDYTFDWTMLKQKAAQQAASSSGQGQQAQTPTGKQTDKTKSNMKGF
Casein kinase II subunit alpha', sequence (P19784 whole entry): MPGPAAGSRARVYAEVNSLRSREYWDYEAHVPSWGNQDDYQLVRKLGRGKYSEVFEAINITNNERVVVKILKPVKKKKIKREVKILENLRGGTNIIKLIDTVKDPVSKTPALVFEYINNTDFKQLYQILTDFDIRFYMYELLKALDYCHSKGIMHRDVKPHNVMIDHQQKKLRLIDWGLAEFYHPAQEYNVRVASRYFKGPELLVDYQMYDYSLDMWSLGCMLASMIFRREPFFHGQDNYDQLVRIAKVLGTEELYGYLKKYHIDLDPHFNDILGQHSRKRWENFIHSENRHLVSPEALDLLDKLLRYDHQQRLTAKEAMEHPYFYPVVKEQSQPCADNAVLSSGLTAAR

Compound | IC50 [1] [nM] | IC50 [2] [nM] | half-life [3] [h] | IC50 [4] [nM] | IC50 [5] [nM] | IC50 [6] [nM] | IC50 [7] [nM] | Vd [8] [L/kg] | Vd [9] [L/kg] | IC50 [10] [nM] | half-life [11] [h] | IC50 [12] [nM] | IC50 [13] [nM] | IC50 [14] [nM] | IC50 [16] [nM] | IC50 [17] [nM] | IC50 [18] [nM] | IC50 [19] [nM] | IC50 [20] [nM] | IC50 [21] [nM] | further results
Cc1c(Br)c(Br)c2c3c1nc(N1CCNCC1)n3CCC2 [SEL-120 FREE BASE] | 14.5 | 298 | 3.01 | 1.34 | 1390 | 160 | 1340 | 6.23 | 32.3 | 5.3 | 2.7 | 332 | 43.8 | 700 | 279 | 21 | 40 | 46 | > 10000 | 51 | AUC/dose [15]: 685 ng·h/mL; clearance [22]: 246 mL/min/kg; IC50 [23]: 20.5 nM; IC50 [24]: 717 nM; IC50 [25]: 0.968 nM; Vd [26]: 19.2 L/kg; clearance [27]: 81 mL/min/kg; IC50 [28]: 132 nM; IC50 [29]: 17.5 nM; clearance [30]: 30 mL/min/kg; IC50 [31]: 4.7 nM; IC50 [32]: 2.7 nM; IC50 [33]: 1.66 nM; IC50 [34]: 25.1 nM; half-life [35]: 1.77 h; IC50 [36]: 19.1 nM
FC(F)c1c(Br)c(Br)cc2c1nc(N1CCNCC1)n2C1CCOCC1 | 2.08 | 124 | 5.04 | 194 | 132 | 8580 | 59.7 | 4.31 | 13.3 | 8.2 | 4.75 | 158 | 5.7 | 5800 | 64.9 | 14.3 | 4580 | 13.6 | 6680 | 197 | AUC(0-t) at 24 h [37]: 1900 ng·h/mL; clearance [22]: 70 mL/min/kg; IC50 [23]: 236 nM; IC50 [24]: 353 nM; IC50 [25]: 31.4 nM; Vd [26]: 5.96 L/kg; clearance [27]: 14 mL/min/kg; IC50 [28]: 503 nM; IC50 [29]: 7.5 nM; clearance [30]: 12 mL/min/kg; IC50 [31]: 42.6 nM; IC50 [32]: 2.9 nM; IC50 [33]: 87.4 nM; IC50 [34]: 25.1 nM; half-life [35]: 2.53 h; Tmax [38]: 2 h; IC50 [36]: 2.49 nM
